The values that follow come from article PMC11420946, “An Engineered Nisin Analogue with a Hydrophobic Moiety Attached at Position 17 Selectively Inhibits Enterococcus faecium Strains” (ACS Chemical Biology, 2024).

≈ marks a conversion by molar mass, not a printed value.

The test system of one series is L. monocytogenes TT82E. In words: Spot-on-lawn assay. It is filed as cell-based. Particulars: triplicate.
For a further series, the system named is chymotrypsin. Briefly: Effect of proteolytic enzymes on antibacterial activity: chymotrypsin. Particulars: 30 μL peptide 1 mg mL^–1 in agar well with 1 mg mL^–1 chymotrypsin, pH 7.2, overnight 30 °C; read-out inhibition zone area on L. lactis MG1363 versus no-enzyme control; three independent experiments. How it is done: (§1) Next the resistance against the proteolytic enzymes trypsin, chymotrypsin, and protease K was investigated by adding these enzymes in separate experiments to assay wells followed by overnight incubation at 30 °C.
(§2) The impact of proteolytic enzymes and temperature on antimicrobial activity was investigated using the representative strain L. lactis MG1363 through the agar well diffusion assay. Thirty microliters of the HPLC purified peptide (1 mg mL^–1) was directly introduced into the agar well containing a final concentration of 1 mg mL^–1 proteolytic enzymes (pH 7.2) or no proteolytic enzyme (control). The plates were incubated overnight at 30 °C followed by the measurement of inhibition zones. Temperature stability was assessed by incubating the peptide at 22, 55, 70, and 90 °C for the specified duration.

The subject of a further series is E. faecium LMG11423. Briefly: Spot-on-lawn assay. In kind it is cell-based. Conditions: triplicate.
Series [1] has as its system E. faecium ATCC U0317 (ACRE). Briefly: Spot-on-lawn assay. It is filed as cell-based. Conditions: triplicate.
For series [2], the system named is S. aureus LMG15975 (MRSA). In words: Spot-on-lawn assay. In kind it is cell-based. Particulars: triplicate.
For series [3], the system named is E. faecalis LMG16216 (VRE). In words: Spot-on-lawn assay. It is filed as cell-based. Conditions: triplicate.
The subject of series [4] is Enterococcus faecium LMG16003 (VRE). It is filed as cell-based. Conditions: as stated in the abstract. As for the experimental part: Minimal inhibitory concentration (MIC) values were determined through broth microdilution following standard guidelines.[29]
Series [5] has as its system E. faecium ATCC E1162 (ARE). Briefly: Spot-on-lawn assay. It is filed as cell-based. Conditions: triplicate.
For series [6], the system named is L. monocytogenes LMG10470. In words: Spot-on-lawn assay. In kind it is cell-based. Particulars: triplicate.
The next series concerns Enterococcus faecium. Briefly: Agar well diffusion assay against Enterococcus faecium. It is filed as cell-based. Conditions: for Antibacterial activity against Enterococcus faecium (in words): Figure 5, HPLC-purified peptide, 30 μL of 0.1 mg mL^–1 per well. How it is done: (§3) To confirm that this procedure yields the modified nisin and at high purity, HPLC analysis of purified 47 was performed (Figure S2). Based on the area of the peaks, the purity of 47 is 96%. Subsequently, 30 μL of 0.1 mg mL^–1 purified compound was added to the well to assess their activity.
(§4) Cultures grown overnight were introduced into 0.8% LB agar for Listeria monocytogenes or GM17 agar for Enterococcus faecium at a temperature of 45 °C, reaching a final concentration of 0.1% (v/v). Subsequently, 30 mL of the mixture was poured onto the plate. Upon solidification of the agar, 8 mm wells were created, and 30 μL of the aforementioned clicked solutions was spotted into the wells. The agar plate underwent overnight incubation at 37 °C followed by measurement of inhibition zones. By comparing the antimicrobial impact of the click chemistry products in this screening assay, we assume that the yields of the different reactions are similar. Zone diameters were recorded in millimeters, with the zone area (πr^2) minus the well area (πr^2) measured in millimeters.[44]
For orientation: In agar diffusion tests the substance spreads into inoculated agar from a disc or well.

The next series has as its system human red blood cells. In words: Hemolysis assay. In kind it is cell-based. Particulars: 200 mg/L versus MIC. How it is done: Considering the potential therapeutic application of a bacteriocin, ensuring its safety is of critical importance. Previous studies have identified hemolytic activities in certain bacteriocins, such as listeriolysin S from Listeria monocytogenes([33]) and cytolysin from Enterococcus faecalis.[34] […] Therefore, a close evaluation of the safety of new bacteriocins is essential. In this study, a hemolytic activity assay was conducted to assess the safety of compounds 16 and 47. In this assay, human blood cells were incubated with varying concentrations of compound 16, compound 47, and nisin, ranging from 0.39 to 200 mg/L. Following a 1 h incubation at 37 °C, we measured the OD414 of the supernatants, and hemolytic activities were calculated, with 10% Triton X-100 serving as a positive control.
Erythrocytes were sourced from a healthy human volunteer donor, and whole human blood was subjected to centrifugation at 600g for 15 min. Subsequently, plasma was removed, and the erythrocytes were subjected to three washes with PBS (pH 7) by centrifugation at 600g for 15 min each. […] The supernatant was transferred to a 96-well plate, and absorbance was measured at a wavelength of 414 nm using a Thermo Scientific Varioskan LUX multimode microplate reader. The absorbance, relative to the positive control treated with 10% Triton X-100, was defined as the percentage of hemolysis.

Another series addresses proteinase K (Parengyodontium album, UniProt P06873). In words: Effect of proteolytic enzymes on antibacterial activity: proteinase K. Particulars: 30 μL peptide 1 mg mL^–1 in agar well with 1 mg mL^–1 proteinase K, pH 7.2, overnight 30 °C; read-out inhibition zone area on L. lactis MG1363 versus no-enzyme control; three independent experiments. As for the experimental part:
as §1, §2

A further series concerns B. cereus CH-85. In words: Spot-on-lawn assay. It is filed as cell-based. Particulars: triplicate.
Series [7] deals with E. faecium LMG16003 (VRE). In words: Spot-on-lawn assay. In kind it is cell-based. Conditions: triplicate.
Series [8] can be described thus: Spot-on-lawn assay to measure peptide-lipid II complex formation. Conditions: lipid II 300 μM, 2 μL spotted at edge of halo; lawns of E. faecium and S. aureus, overnight 37 °C. It is filed as binding. How it is done: To assess the interaction between the HPLC purified peptide and lipid II, an overnight culture was introduced into 0.8% GM17 medium for E. faecium or LB medium for S. aureus (w/v, temperature 45 °C) at a final concentration of 1% (v/v). Subsequently, this mixture was evenly distributed onto 10 mL plates. The binding affinity of the peptide and lipid II was further examined by applying purified lipid II (300 μM, 2 μL) to the periphery of the antibiotic inhibition halo. Briefly, HPLC purified antimicrobials were initially applied to the agar plate, and once the antimicrobial solution drops had dried, lipid II was spotted along the edge of the inhibition halo. The plates were then incubated overnight at 37 °C.

A short description of series [9]: Effect of temperature on antibacterial activity (thermal stability). In kind it is physicochemical. Conditions: higher temperatures of 22, 55, 70, 90 °C, 8 h storage; read-out inhibition zone area on L. lactis MG1363 relative to 0 h; three independent experiments. How it is done: Figure S4. Investigation of the thermal stability profile of nisin (compound 1) and compound 47. Thermal stability was evaluated across a temperature range from 22 to 90 °C within an 8-hour incubation period.
Relative antimicrobial activity of the peptides following exposure to different temperatures. The relative activity was determined by calculating the area at different time points divided by the area at the start point (labeled 0 h), multiplied by 100%. Three independent experiments were conducted.

A further series relates to Escherichia coli CECT101. Briefly: Spot-on-lawn assay. In kind it is cell-based. Particulars: triplicate.
A further series concerns S. aureus LMG10147. Briefly: Spot-on-lawn assay. In kind it is cell-based. Particulars: triplicate.
The subject of series [10] is E. faecium ATCC E1321 (AGRE). In words: Spot-on-lawn assay. It is filed as cell-based. Conditions: triplicate.
For another series, the system named is Listeria monocytogenes. Briefly: Agar well diffusion assay against Listeria monocytogenes. In kind it is cell-based. Particulars: Figure 4, second round; 30 μL click reaction solution in 8 mm well, LB agar, overnight 37 °C; triplicate. As for the experimental part:
as §3, §4

Sequence of proteinase K (P06873 106-384): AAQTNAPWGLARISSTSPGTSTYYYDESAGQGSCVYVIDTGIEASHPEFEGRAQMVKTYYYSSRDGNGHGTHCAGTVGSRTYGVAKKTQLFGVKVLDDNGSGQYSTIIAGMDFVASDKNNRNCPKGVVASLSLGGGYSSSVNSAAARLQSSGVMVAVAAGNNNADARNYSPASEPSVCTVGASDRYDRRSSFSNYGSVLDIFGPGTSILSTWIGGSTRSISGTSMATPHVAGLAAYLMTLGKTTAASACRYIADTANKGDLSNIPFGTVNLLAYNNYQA

Turning to `C=C(NC(=O)[C@@H](NC(=O)[C@H](Cc1c[nH]cn1)NC(=O)[C@@H](NC(=O)[C@H](CO)NC(=O)[C@@H]1CS[C@@H](C)[C@H]2NC(=O)[C@H](C)NC(=O)[C@H](NC(=O)[C@H](CCCCN)NC(=O)[C@@H](NC(=O)[C@H](CC(N)=O)NC(=O)[C@@H]3CS[C@@H](C)[C@@H](NC(=O)[C@H](CCCCN)NC(=O)[C@@H]4CS[C@@H](C)[C@@H](NC(=O)[C@@H]5CSC[C@@H](NC(=O)/C(=C/C)NC(=O)[C@@H](N)[C@@H](C)CC)C(=O)N[C@@H]([C@@H](C)CC)C(=O)NC(=C)C(=O)N[C@@H](CC(C)C)C(=O)N5)C(=O)N5CCC[C@H]5C(=O)NCC(=O)N4)C(=O)NCC(=O)N[C@@H](C)C(=O)N[C@@H](CC(C)C)C(=O)N[C@@H](CCn4cc(CCCc5ccccc5)nn4)C(=O)NCC(=O)N3)C(C)C)[C@H](C)SC[C@H](NC2=O)C(=O)N[C@@H](Cc2c[nH]cn2)C(=O)N1)[C@@H](C)CC)C(C)C)C(=O)N[C@@H](CCCCN)C(=O)O` [compound 47], the “Antimicrobial activity, diameter rating” value in the series with L. monocytogenes TT82E is reported as “++ (4–8 mm, + +)”; with E. faecium LMG11423, “+++++ (16–20 mm, +++++)”; in [1] it was “++++ (12–16 mm, ++++)”; in [2] it was “+ (0–4 mm, +)”; in series [3], “++ (4–8 mm, + +)”; in [5], “++++ (12–16 mm, ++++)”. Besides, the “Antimicrobial activity, diameter rating” value is “++ (4–8 mm, + +)” in series [6]; “++ (4–8 mm, + +)” in the series with B. cereus CH-85; “++++ (12–16 mm, ++++)” in [7]; “+ (0–4 mm, +)” in the series with Escherichia coli CECT101; “+ (0–4 mm, +)” in the series on S. aureus LMG10147; “++++ (12–16 mm, ++++)” in series [10]. Further, in the series on chymotrypsin, the “Loss in antimicrobial activity after exposure to chymotrypsin” value amounted to 16%. The “MIC value against E. faecium strains” value in series [4] stood at 3.8 µg/mL (≈ 1.1 µM). Moreover, the “Antibacterial activity against Enterococcus faecium (in words)” value in the series on Enterococcus faecium was “high potency of nisin against Enterococcus faecium was retained”. Further, the “Concentration with minimal hemolytic activity (200 mg/L) relative to MIC against Enterococcus faecium” value in the series with human red blood cells is 50 fold. Moreover, the “Loss in antimicrobial activity after exposure to proteinase K” value at proteinase K is on record as 77%. For the same compound, the “Binding to lipid II (effect of added purified lipid II on the inhibition halo)” value in series [8] is “retained its ability to bind to lipid II”. For the same compound, the “Loss in antimicrobial activity on storage at elevated temperature” value in series [9] is given as “Less than 40%”.
As to `C=C(NC(=O)[C@@H](NC(=O)[C@H](Cc1c[nH]cn1)NC(=O)[C@@H](NC(=O)[C@H](CO)NC(=O)[C@@H]1CS[C@@H](C)[C@H]2NC(=O)[C@H](C)NC(=O)[C@H](NC(=O)[C@H](CCCCN)NC(=O)[C@@H](NC(=O)[C@H](CC(N)=O)NC(=O)[C@@H]3CS[C@@H](C)[C@@H](NC(=O)[C@H](CCCCN)NC(=O)[C@@H]4CS[C@@H](C)[C@@H](NC(=O)[C@@H]5CSC[C@@H](NC(=O)/C(=C/C)NC(=O)[C@@H](N)[C@@H](C)CC)C(=O)N[C@@H]([C@@H](C)CC)C(=O)NC(=C)C(=O)N[C@@H](CC(C)C)C(=O)N5)C(=O)N5CCC[C@H]5C(=O)NCC(=O)N4)C(=O)NCC(=O)N[C@@H](C)C(=O)N[C@@H](CC(C)C)C(=O)N[C@@H](CCn4cc(CCCCCCCC)nn4)C(=O)NCC(=O)N3)C(C)C)[C@H](C)SC[C@H](NC2=O)C(=O)N[C@@H](Cc2c[nH]cn2)C(=O)N1)[C@@H](C)CC)C(C)C)C(=O)N[C@@H](CCCCN)C(=O)O` [compound 16], the “Antimicrobial activity, diameter rating” value in the series on L. monocytogenes TT82E is “++ (4–8 mm, + +)”; with E. faecium LMG11423, “+++++ (16–20 mm, +++++)”; in series [1] it was “++++ (12–16 mm, ++++)”; in [2], “+ (0–4 mm, +)”; in series [3], “++ (4–8 mm, + +)”; in series [5], “++++ (12–16 mm, ++++)”. Also, the “Antimicrobial activity, diameter rating” value is listed as “++ (4–8 mm, + +)” in series [6]; “++ (4–8 mm, + +)” with B. cereus CH-85; “++++ (12–16 mm, ++++)” in series [7]; “+ (0–4 mm, +)” in the series on Escherichia coli CECT101; “+ (0–4 mm, +)” in the series on S. aureus LMG10147; “++++ (12–16 mm, ++++)” in series [10]. Further, the “Area1: area of the inhibition zone minus the well area, Enterococcus faecium” value in the series on Enterococcus faecium (Figure 4, second round, 30 μL click reaction solution in 8 mm well, GM17 agar, overnight 37 °C, triplicate) is recorded as 51 mm^2. Moreover, the “Antibacterial activity against Enterococcus faecium (in words)” value with Enterococcus faecium is listed as “high potency of nisin against Enterococcus faecium was retained”. Also, in the series on Listeria monocytogenes, the “Area2: area of the inhibition zone minus the well area, Listeria monocytogenes” value is 19 mm^2.
